Patent publication US20110105543A1, “NOVEL TRIARYL DERIVATIVES USEFUL AS MODULATORS OF NICOTINIC ACETYLCHOLINE RECEPTORS” (NeuroSearch A/S, priority 2008, published 2011)

Assays:
nAChR α7 receptors = target: T1, nAChR α7 receptors (Homo sapiens, UniProt P36544); experiment: Positive modulation of acetylcholine-induced currents at wild-type nAChR α7 receptors expressed in Xenopus laevis oocytes (two-electrode voltage clamp); format: cell-based; details: for effect on acetylcholine-induced current amplitude: compound 0.01-31.6 μM applied 30 s before and during 100 μM acetylcholine; for maximal modulation of the acetylcholine response (Imax) / EC50: nAChR α7 in Xenopus oocytes, 100 μM acetylcholine; for maximal modulation of the acetylcholine response (Imax): (test-control)/control*100%; for EC50: clamped at -60 mV, compound 0.01-31.6 μM, read-out: calculated EC50 value for positive modulation of 100 μM acetylcholine responses
T1 construct: expressed in transfected cells; host or cells: Xenopus laevis oocytes
Method: In this example the positive modulation of wild-type nAChR α7 receptors by Compound 2 (i.e. 4-[5-Amino-6-(2,4-dichloro-phenyl)-pyrimidin-4-yl]-phenol; FIGS. 1A and 1B) and by Compound 6 (i.e. 2′-Amino-5′,2″-difluoro-4″-trifluoromethyl-[1,1′;3′,1″]terphenyl-4-ol; FIGS. 2A and 2B) was determined using nAChR α7 receptors heterologously expressed in Xenopus laevis oocytes.
The electrical current through the nAChR α7 channel was measured using conventional two-electrode voltage clamp and nAChR α7 currents were activated by applying pulses of agonist-containing solution onto the nAChR α7 expressing oocyte.
In brief, the oocytes were placed in a recording chambers and continuously superfused with an Oocyte Ringer (OR) solution containing 90 mM NaCl, 2.5 mM KCl, 2.5 mM CaCl2, 1 mM MgCl2 and 5 mM HEPES (pH adjusted to 7.4). The oocytes were clamped at −60 mV and currents were induced by applying 20 s pulses of 100 μM acetylcholine dissolved in OR. The intervals between the acetylcholine applications were 5 minutes, during which the oocytes were washed with OR. The first three applications were control applications to insure a constant response level of 100 μM acetylcholine.
The positive modulation in the presence of Compound 2 or Compound 6 was calculated as (test-control)/control*100% and the concentration response curve for this positive modulation was fitted to the sigmoidal logistic equation: I=Imax/(1+(EC50/[compound])^n), where Imax represents the maximal modulation of the control response, EC50 is the concentration causing a half maximal response, and n is the slope coefficient.

T1 sequence (P36544 23-502): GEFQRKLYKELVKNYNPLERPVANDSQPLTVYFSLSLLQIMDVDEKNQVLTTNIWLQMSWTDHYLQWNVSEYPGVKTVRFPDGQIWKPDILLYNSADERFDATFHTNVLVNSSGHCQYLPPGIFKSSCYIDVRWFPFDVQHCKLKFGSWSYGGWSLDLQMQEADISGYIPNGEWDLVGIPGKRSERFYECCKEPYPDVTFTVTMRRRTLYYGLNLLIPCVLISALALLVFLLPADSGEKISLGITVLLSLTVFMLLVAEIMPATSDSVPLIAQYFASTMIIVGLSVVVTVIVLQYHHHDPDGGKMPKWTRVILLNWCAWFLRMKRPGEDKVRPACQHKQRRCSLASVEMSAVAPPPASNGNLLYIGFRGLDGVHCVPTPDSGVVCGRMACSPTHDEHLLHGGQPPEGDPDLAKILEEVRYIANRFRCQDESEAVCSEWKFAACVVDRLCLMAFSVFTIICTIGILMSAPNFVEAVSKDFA

| melting point | Structure (SMILES) | other results |
| --- | --- | --- |
| 174.8 to 176.1 °C | Nc1c(-c2ccc(S(N)(=O)=O)cc2)ncnc1-c1ccc(C(F)(F)F)cc1F [Compound 11, 4-[5-Amino-6-(2-fluoro-4-trifluoromethyl-phenyl)-pyrimidin-4-yl]-benzenesulfonamide] |  |
| 150 to 151.5 °C | COc1ccc(-c2ncnc(-c3ccc(C(F)(F)F)cc3F)c2N)c(O)c1 [Compound 9, 2-[5-Amino-6-(2-fluoro-4-trifluoromethyl-phenyl)-pyrimidin-4-yl]-5-methoxy-phenol] |  |
| 97.8 to 98.9 °C | Nc1c(-c2ccc(O)cc2)cc(F)cc1-c1ccc(C(F)(F)F)cc1F [Compound 6, 2′-Amino-5′,2″-difluoro-4″-trifluoromethyl-[1,1′;3′,1″]terphenyl-4-ol] | effect on acetylcholine-induced current amplitude (nAChR α7 receptors): robust increase; maximal modulation of the acetylcholine response (Imax) (nAChR α7 receptors): 361%; EC50 (nAChR α7 receptors): 1.4 µM |
| 175.4 to 176.9 °C | Cc1nc(-c2ccc(O)cc2)c(N)c(-c2ccc(C(F)(F)F)cc2F)n1 [Compound 16, 4-[5-Amino-6-(2-fluoro-4-trifluoromethyl-phenyl)-2-methyl-pyrimidin-4-yl]-phenol] |  |
| 133.6 to 134.8 °C | Nc1c(-c2ccc(O)cc2)cncc1-c1ccc(C(F)(F)F)cc1F [Compound 22, 4-[4-Amino-5-(2-fluoro-4-trifluoromethyl-phenyl)-pyridin-3-yl]-phenol] |  |
| 191.5 to 192.8 °C | COc1ccc(-c2ncnc(-c3ccc(C(F)(F)F)cc3F)c2N)c(OC)c1 [Compound 7, 4-(2,4-Dimethoxy-phenyl)-6-(2-fluoro-4-trifluoromethyl-phenyl)-pyrimidin-5-ylamine] |  |
| 169.5 to 170.3 °C | COc1ccc(-c2cncc(-c3ccc(C(F)(F)F)cc3F)c2N)cc1 [Compound 21, 3-(2-Fluoro-4-trifluoromethyl-phenyl)-5-(4-methoxy-phenyl)-pyridin-4-ylamine] |  |
| 103 to 106 °C | Nc1c(-c2ccc3[nH]ccc3c2)cncc1-c1ccc(C(F)(F)F)cc1F [Compound 23, 3-(2-Fluoro-4-trifluoromethyl-phenyl)-5-(1H-indol-5-yl)-pyridin-4-ylamine] |  |
| 129.2 to 130.6 °C | COc1ccc(-c2nc(C)nc(-c3ccc(C(F)(F)F)cc3F)c2N)cc1 [Compound 15, 4-(2-Fluoro-4-trifluoromethyl-phenyl)-6-(4-methoxy-phenyl)-2-methyl-pyrimidin-5-ylamine] |  |
| 189.4 to 191.2 °C | Nc1c(-c2ccc(S(N)(=O)=O)cc2)cc(F)cc1-c1ccc(C(F)(F)F)cc1F [Compound 25, 2′-Amino-5′,2″-difluoro-4″-trifluoromethyl-[1,1′;3′,1″]terphenyl-4-sulfonic acid amide] |  |
| 125.8 to 127.1 °C | COc1ccc(-c2nc(N)nc(-c3ccc(C(F)(F)F)cc3F)c2N)cc1 [Compound 17, 4-(2-Fluoro-4-trifluoromethyl-phenyl)-6-(4-methoxy-phenyl)-pyrimidine-2,5-diamine] |  |
| 251 to 252.2 °C | Nc1c(-c2ccc(O)cc2)cnnc1-c1ccc(C(F)(F)F)cc1F [Compound 20, 4-[5-Amino-6-(2-fluoro-4-trifluoromethyl-phenyl)-pyridazin-4-yl]-phenol] |  |
| 215.3 to 216.2 °C | COc1ccc(-c2cnnc(-c3ccc(C(F)(F)F)cc3F)c2N)cc1 [Compound 19, 3-(2-Fluoro-4-trifluoromethyl-phenyl)-5-(4-methoxy-phenyl)-pyridazin-4-ylamine] |  |
| 162.5 to 163.3 °C | Cc1nc(-c2ccc3c(c2)OCO3)c(N)c(-c2ccc(C(F)(F)F)cc2F)n1 [Compound 14, 4-Benzo[1,3]-dioxol-5-yl-6-(2-fluoro-4-trifluoromethyl-phenyl)-2-methyl-pyrimidin-5-ylamine] |  |
| 141.3 to 142.1 °C | COc1ccc(-c2ncnc(-c3ccc(Cl)cc3Cl)c2N)cc1 [Compound 1, 4-(2,4-Dichloro-phenyl)-6-(4-methoxy-phenyl)-pyrimidin-5-ylamine] |  |
| 97.3 to 98.2 °C | Nc1c(-c2ccc(O)cc2)ncnc1-c1ccc(Cl)cc1Cl [Compound 2, 4-[5-Amino-6-(2,4-dichloro-phenyl)-pyrimidin-4-yl]-phenol] | effect on acetylcholine-induced current amplitude (nAChR α7 receptors): robust increase; maximal modulation of the acetylcholine response (Imax) (nAChR α7 receptors): 299%; EC50 (nAChR α7 receptors): 1.2 µM |
| 85.2 to 86.3 °C | COc1ccc(-c2cc(F)cc(-c3ccc(C(F)(F)F)cc3F)c2N)cc1 [Compound 5, 5′,2″-Difluoro-4-methoxy-4″-trifluoromethyl-[1,1′;3′,1″]terphenyl-2′-ylamine] |  |
| 104.5 to 105.2 °C | COc1ccc(-c2nc(C)nc(-c3ccc(C(F)(F)F)cc3F)c2N)cc1Cl [Compound 12, 4-(3-Chloro-4-methoxy-phenyl)-6-(2-fluoro-4-trifluoromethyl-phenyl)-2-methyl-pyrimidin-5-ylamine] |  |
| 226.3 to 227.5 °C | Nc1nc(-c2ccc(O)cc2)c(N)c(-c2ccc(C(F)(F)F)cc2F)n1 [Compound 18, 4-[2,5-Diamino-6-(2-fluoro-4-trifluoromethyl-phenyl)-pyrimidin-4-yl]-phenol] |  |
| 100.8 to 101.8 °C | COc1ccc(-c2nc(C)nc(-c3ccc(C(F)(F)F)cc3F)c2[N+](=O)[O-])cc1 [Compound 13, 4-(2-Fluoro-4-trifluoromethyl-phenyl)-6-(4-methoxy-phenyl)-2-methyl-5-nitro-pyrimidine] |  |
| 216.1 to 217.8 °C | Nc1c(-c2ccc3[nH]ccc3c2)ncnc1-c1ccc(C(F)(F)F)cc1F [Compound 10, 4-(2-Fluoro-4-trifluoromethyl-phenyl)-6-(1H-indol-5-yl)-pyrimidin-5-ylamine] |  |
